The values that follow come from patent US4816448A, “Thermal isomer of difficidin and thermal isomer of oxydifficidin antibacterials” (Merck & Co., Inc., priority 1987, dated 1989).

Series [1] deals with aerobic microorganisms. Description: Antibacterial activity against aerobic microorganisms. It counts as cell-based. The conditions noted are these: aerobic microorganisms such as Pseudomonas aeruginosa and Staphylococcus aureus. The source says:
(§1) Using standard in vitro assay techniques, minimal inhibitory concentrations (MIC) have been determined for the thermal isomer of difficidin and the thermal isomer of oxydifficidin against a number of bacteria.

Series [2] has as its system anaerobic bacteria. Description: Antibacterial activity against anaerobic bacteria. It counts as cell-based.
For series [3], the system named is Proteus. Put plainly: Antibacterial activity, relative potency. It counts as cell-based. The settings on record: in most cases.
Description: as §1

Series [4] has as its system P. aeruginosa. Put plainly: MIC, standard in vitro assay (Table I). It counts as cell-based, Pseudomonas aeruginosa. The conditions noted are these: Ps. aeruginosa; in most cases.
Description: as §1

Series [5] has as its system S. aureus. Description: MIC, standard in vitro assay (Table I). It counts as cell-based, Staphylococcus aureus. The conditions noted are these: in most cases.
Description: as §1

Series [6] can be described thus: Isomerization of difficidin at 60° C., HPLC (Example IV). The settings on record: tetrahydrofuran. It is filed as physicochemical. As to the method: Difficidin is stored as the potassium salt at pH7 in aqueous methanol solution at -80° C. A 0.67 ml aliquot containing 400 mcg of difficidin was evaporated to an oil and taken up in 0.2 ml of tetrahydrofuran. The sample was heated at 60° C. for 3 days.

The subject of series [7] is Salmonella typhimurium. Put plainly: MIC, standard in vitro assay (Table I). The settings on record: in most cases. It is filed as cell-based.
Description: as §1

For series [8], the system named is Serratia marcescens. Description: MIC, standard in vitro assay (Table I). It is filed as cell-based. The conditions noted are these: in most cases.
Description: as §1

Series [9] is described as follows: Thermal isomerization of difficidin and oxydifficidin, equilibrium. It counts as physicochemical. The conditions noted are these: for time to reach equilibrium with its thermal isomer / converted to thermal isomer at equilibrium: 60° C.; for converted to thermal isomer at equilibrium: suitable solvent such as water, alcohol or ethyl acetate. As to the method: Alternatively, the thermal isomers of the subject invention can be prepared by converting difficidin and oxydifficidin to the thermal isomer of difficidin and thermal isomer of oxydifficidin, respectively. Difficidin and oxydifficidin can be prepared and purified as described in U.S. Pat. No. 4,545,991. The thermal isomers can be prepared by thermally heating (to about 60° C.) the difficidin and oxydifficidin in a suitable solvent system such as water, alcohol or ethyl acetate. At 60° C., it takes about 24 hours for difficidin and oxydifficidin to reach equilibrium with its thermal isomer. At equilibrium, about 25% of the difficidin has converted to the thermal isomer and about 66% of the oxydifficidin has converted to its thermal isomer. […] The thermal isomer can then be separated from the equilibrium mixture by standard chromatographic techniques.

Series [10] is described as follows: Isomerization of oxydifficidin at 60° C., HPLC (Example V). It is filed as physicochemical. The conditions noted are these: under argon, tetrahydrofuran. The procedure:
Pure oxydifficidin was stored as the potassium salt, pH7, in aqueous methanol solution at -80° C. A 28 ml aliquot, containing 95 mg of antibiotic, was treated with 2 mg. of 2,6-di-t-butyl-phenol and evaporated to 3-4 ml. The concentrate was diluted with tetrahydrofuran to a final volume of 44 ml. The solution was heated under argon at 60° C.

On to `C=C/C=C(\C)CCC1C/C=C\C=C(\C)C(OP(=O)(O)O)CC/C=C/C=C\C=C/CCC(C)C(=C)CC(=O)O1` (stereo not drawn) [thermal isomer of difficidin, (Z,Z,E,Z,Z,)-16-dihydroxyphosphinoxy-5,7-dimethyl-4-methylene-22-((E)-3-methyl-3,5-hexadienyl)oxacyclo-docosa-8,10,12,17,19-pentaen-2-one], for which the “potency against aerobic microorganisms vs thermal isomer of oxydifficidin” value in series [1] was “more potent than the thermal isomer of oxydifficidin”. Besides, in series [2], the “activity against anaerobic bacteria” value is reported as “active against a wide spectrum of anaerobic bacteria”. The “effectiveness relative to thermal isomer of oxydifficidin” value in series [3], in series [4], in series [5], in [7] and in series [8] was “four times more effective” in each case. In addition, the Composition in series [6] (0 days) is on record as 2%; in [6] (3 days), 24%.

As for difficidin, in [9], the “time to reach equilibrium with its thermal isomer” value is “about 24 hours”, the “converted to thermal isomer at equilibrium” value was “about 25%” and the “isomerization at room temperature” value is “some isomerization takes place”. In series [6] (0 days), this molecule registered a Composition of 98%. In addition, the Composition in [6] (3 days) is listed as 76%.

For the molecule oxydifficidin [reference compound], in [9], the “time to reach equilibrium with its thermal isomer” value is recorded as “about 24 hours”. In addition, in [9], the “converted to thermal isomer at equilibrium” value is “about 66%”. Further, in series [9], the “isomerization at room temperature” value was “some isomerization takes place”. Moreover, the Composition is on record as 39% in [10] (17 hrs., HPLC); 36% in series [10] (24 hrs., HPLC); 34% in series [10] (41 hrs., HPLC); 98% in series [10] (time 0, HPLC).
